The record followed here is US10399985B2, “(Hetero)aryl imidazoles/pyrazoles for treatment of neurological disorders” (Hoffmann-La Roche Inc., priority 2014, dated 2019).

The IC50 is the concentration needed to halve the response being measured.

Chain of human PDE10A (Q9Y233 other isoform, or with tags, fused parts or gaps): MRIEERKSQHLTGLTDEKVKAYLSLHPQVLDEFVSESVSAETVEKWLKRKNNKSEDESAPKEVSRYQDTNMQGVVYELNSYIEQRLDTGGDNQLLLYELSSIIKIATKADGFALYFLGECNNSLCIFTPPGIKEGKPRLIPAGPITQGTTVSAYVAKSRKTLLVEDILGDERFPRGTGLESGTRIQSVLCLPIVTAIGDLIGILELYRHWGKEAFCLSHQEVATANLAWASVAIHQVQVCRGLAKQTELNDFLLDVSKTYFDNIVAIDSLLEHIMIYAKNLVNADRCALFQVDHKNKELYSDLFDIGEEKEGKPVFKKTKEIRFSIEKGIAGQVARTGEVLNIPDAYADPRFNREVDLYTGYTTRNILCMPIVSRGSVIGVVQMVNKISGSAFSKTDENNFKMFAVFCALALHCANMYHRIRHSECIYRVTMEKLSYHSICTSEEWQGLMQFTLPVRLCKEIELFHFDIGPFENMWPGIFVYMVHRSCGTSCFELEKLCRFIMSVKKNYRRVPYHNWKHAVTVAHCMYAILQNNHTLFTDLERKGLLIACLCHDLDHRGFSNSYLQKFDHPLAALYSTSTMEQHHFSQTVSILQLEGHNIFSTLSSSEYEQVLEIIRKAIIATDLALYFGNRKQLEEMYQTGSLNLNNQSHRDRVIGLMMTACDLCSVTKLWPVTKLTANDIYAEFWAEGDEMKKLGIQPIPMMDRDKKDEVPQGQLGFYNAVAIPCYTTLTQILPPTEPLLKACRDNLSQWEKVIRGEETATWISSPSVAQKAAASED

This assay addresses human PDE10A (Homo sapiens (Human), UniProt Q9Y233). The assay is described as follows: human PDE10A full length Scintillation Proximity Assay (SPA). Format: biochemical. As to conditions: 50 nM cGMP and 50 nM [3H]-cGMP, 20 minutes at room temperature. The protocol: The following test was carried out in order to determine the activity of the compounds of the present invention. PDE10 activity of the compounds of the present invention was determined using a Scintillation Proximity Assay (SPA)-based method similar to the one previously described (Fawcett, L. et al., ProcNatl Acad Sci USA (2000) 97(7):3702-3707).
The human PDE10A full length assay was performed in 96-well micro titer plates. The reaction mixture of 50 μl contained 20 mM HEPES pH=7.5/10 mM MgCl2/0.05 mg/ml BSA (Sigma cat. # A-7906), 50 nM cGMP (Sigma, cat. # G6129) and 50 nM [3H]-cGMP (GE Healthcare, cat. # TRK392 S. A. 13.2 Ci/mmol), 3.75 ng/well PDE10A enzyme (Enzo Life Science, Lausen, Switzerland cat # SE-534) with or without a specific test compound. A range of concentrations of the potential inhibitor was used to generate data for calculating the concentration of inhibitor resulting in 50% of the effect (e.g. IC50, the concentration of the competitor inhibiting PDE10A activity by 50%). Non-specific activity was tested without the enzyme. The reaction was initiated by the addition of the substrate solution (cGMP and [3H]-cGMP) and allowed to progress for 20 minutes at room temperature. The reaction was terminated by adding 25 μl of YSi-SPA scintillation beads (GE Healthcare, cat. # RPNQ0150) in 18 mM zinc sulphate solution (stop reagent). After 1 h under shaking, the plate was centrifuged one minute at 170 g to allow beads to settle. Afterwards, radioactive counts were measured on a Perkin Elmer TopCount Scintillation plate reader.
The compound `Cc1c(C#N)nc2ccc(OCc3nc(-c4ccccc4)cn3C)nn12` [Example 40, 3-Methyl-6-((1-methyl-4-phenyl-1H-imidazol-2-yl)methoxy)imidazo[1,2-b]pyridazine-2-carbonitrile] showed an IC50 of 23.7 nM.
For `Cn1cc(-c2ccccc2)nc1CCc1ccc2nc(C(F)(F)F)cn2n1` [Example 20, 6-(2-(1-Methyl-4-phenyl-1H-imidazol-2-yl)ethyl)-2-(trifluoromethyl)imidazo[1,2-b]pyridazine], 82.8 nM corresponded to half-maximal inhibition (IC50).
In turn, `Cc1nn2ccc(CCc3nc(-c4ccccc4)cn3C)nc2c1C` [Example 16, 2,3-Dimethyl-5-(2-(1-methyl-4-phenyl-1H-imidazol-2-yl)ethyl)pyrazolo[1,5-a]pyrimidine] gave an IC50 of 2.4 nM. This IC50 lies about 34-fold lower than the previous one.
In turn, `Cc1nc2ccc(CCc3nc(-c4ccnnc4)cn3C)nn2c1C` [Example 28, 2,3-Dimethyl-6-(2-(1-methyl-4-(pyridazin-4-yl)-1H-imidazol-2-yl)ethyl)imidazo[1,2-b]pyridazine] had an IC50 of 81.2 nM.
For `Cc1nc2c(C)c(C)c(OCc3nc(-c4ccccc4)cn3C)nn2c1C` [Example 34, 2,3,7,8-Tetramethyl-6-((1-methyl-4-phenyl-1H-imidazol-2-yl)methoxy)imidazo[1,2-b]pyridazine] the value was 1.7 nM; for `Cc1nc2ccc(CCc3nc(-c4ncccn4)cn3C)nn2c1C` [Example 23, 2,3-Dimethyl-6-(2-(1-methyl-4-(pyrimidin-2-yl)-1H-imidazol-2-yl)ethyl)imidazo[1,2-b]pyridazine], 9.2 nM.
For `Cn1cc(-c2ccccc2)nc1C#Cc1ccc2nc(C(F)(F)F)cn2n1` [Example 8, 6-(1-Methyl-4-phenyl-1H-imidazol-2-ylethynyl)-2-trifluoromethyl-imidazo[1,2-b]pyridazine] the value was 1 nM; for `Cc1c(C#N)nc2ccc(/C=C/c3nc(-c4ccccc4)cn3C)nn12` [Example 12, (E)-3-methyl-6-(2-(1-methyl-4-phenyl-1H-imidazol-2-yl)vinyl)imidazo[1,2-b]pyridazine-2-carbonitrile], 13.8 nM; for `Cc1nc2ccc(OCc3nc(-c4ccccc4)cn3C)nn2c1C` [Example 32, 2,3-Dimethyl-6-((1-methyl-4-phenyl-1H-imidazol-2-yl)methoxy)imidazo[1,2-b]pyridazine], 7.2 nM.
For `Cc1nc2c(C)c(C)c(CCc3nc(-c4ccccc4)cn3C)nn2c1C` [Example 14, 2,3,7,8-Tetramethyl-6-(2-(1-methyl-4-phenyl-1H-imidazol-2-yl)ethyl)imidazo[1,2-b]pyridazine] the value was 10.8 nM.
Compound `Cn1cc(-c2ccccc2)nc1COc1ccc2nc(C3CC3)cn2n1` [Example 37, 2-Cyclopropyl-6-((1-methyl-4-phenyl-1H-imidazol-2-yl)methoxy)imidazo[1,2-b]pyridazine] gave an IC50 of 169 nM.
For `Cc1nc2ccc(CCc3nc(-c4ccncc4)cn3C)nn2c1C` [Example 25, 2,3-Dimethyl-6-(2-(1-methyl-4-(pyridin-4-yl)-1H-imidazol-2-yl)ethyl)imidazo[1,2-b]pyridazine] the value was 32.3 nM; for `Cc1c(C#N)nc2ccc(CCc3nc(-c4ccccc4)cn3C)nn12` [Example 22, 3-Methyl-6-[2-(1-methyl-4-phenyl-1H-imidazol-2-yl)-ethyl]-imidazo[1,2-b]pyridazine-2-carbonitrile], 5.4 nM; for `CNC(=O)c1cc(CCc2nc(-c3ccccn3)cn2C)nn2c(C)c(C(F)(F)F)nc12` [Example 31, N,3-Dimethyl-6-(2-(1-methyl-4-(pyridin-2-yl)-1H-imidazol-2-yl)ethyl)-2-(trifluoromethyl)imidazo[1,2-b]pyridazine-8-carboxamide], 8 nM.
`Cc1c(C(F)(F)F)nc2ccc(OCc3nc(-c4ccccc4)cn3C)nn12` [Example 36, 3-Methyl-6-((1-methyl-4-phenyl-1H-imidazol-2-yl)methoxy)-2-(trifluoromethyl)imidazo[1,2-b]pyridazine]: the midpoint of inhibition, the IC50, lay at 34.6 nM.
`Cc1c(C2CC2)nc2ccc(C#Cc3nc(-c4ccccc4)cn3C)nn12` [Example 10, 2-Cyclopropyl-3-methyl-6-((1-methyl-4-phenyl-1H-imidazol-2-yl)ethynyl)imidazo[1,2-b]pyridazine]: the IC50 stood at 12 nM.
For `Cc1nn2ccc(OCc3nc(-c4ccccc4)cn3C)nc2c1C` [Example 46, 2,3-Dimethyl-5-((1-methyl-4-phenyl-1H-imidazol-2-yl)methoxy)pyrazolo[1,5-a]pyrimidine] the value was 3.4 nM.
As to `Cc1c(C(F)(F)F)nc2ccc(CCc3nc(-c4ccccc4)cn3C)nn12` [Example 17, 3-Methyl-6-(2-(1-methyl-4-phenyl-1H-imidazol-2-yl)ethyl)-2-(trifluoromethyl)imidazo[1,2-b]pyridazine], the IC50 is 20.5 nM.
For `Cc1nc2ccc(CCc3nc(-c4cncnc4)cn3C)nn2c1C` [Example 26, 2,3-Dimethyl-6-(2-(1-methyl-4-(pyrimidin-5-yl)-1H-imidazol-2-yl)ethyl)imidazo[1,2-b]pyridazine] the value was 98.5 nM.
In turn, `Cc1nc2ccc(CCc3nc(-c4ccccn4)cn3C)nn2c1C` [Example 27, 2,3-Dimethyl-6-(2-(1-methyl-4-(pyridin-2-yl)-1H-imidazol-2-yl)ethyl)imidazo[1,2-b]pyridazine] showed an IC50 of 3.3 nM.
In the case of `Cc1c(C(F)F)nc2ccc(C#Cc3nc(-c4ccccc4)cn3C)nn12` [Example 7, 2-(Difluoromethyl)-3-methyl-6-((1-methyl-4-phenyl-1H-imidazol-2-yl)ethynyl)imidazo[1,2-b]pyridazine] it was 46.6 nM.
As for `Cc1nc2ccc(CCc3nc(-c4ccccc4)nn3C)nn2c1C` [Example 21, 2,3-Dimethyl-6-(2-(1-methyl-3-phenyl-1H-1,2,4-triazol-5-yl)ethyl)imidazo[1,2-b]pyridazine], it took 27.7 nM to reach half-maximal inhibition (IC50).
As for `Cc1nc2ccc(CCc3nc(-c4ccccc4)cn3C)nn2c1CO` [Example 15, (2-Methyl-6-(2-(1-methyl-4-phenyl-1H-imidazol-2-yl)ethyl)imidazo[1,2-b]pyridazin-3-yl)methanol], inhibition was half-maximal at 3.4 nM (IC50).
For `Cc1nc2ccc(C#Cc3nc(-c4ccccc4)cn3C)nn2c1CO` [Example 3, (2-Methyl-6-((1-methyl-4-phenyl-1H-imidazol-2-yl)ethynyl)imidazo[1,2-b]pyridazin-3-yl)methanol] the value was 1 nM; for `Cc1nc2ccc(OCc3nc(-c4ccccc4)nn3C)nn2c1C` [Example 33, 2,3-Dimethyl-6-((1-methyl-3-phenyl-1H-1,2,4-triazol-5-yl)methoxy)imidazo[1,2-b]pyridazine], 51.6 nM.
`Cn1cc(-c2ccccc2)nc1COc1ccc2nc3c(n2n1)CCC3` [Example 44, 2-[(1-Methyl-4-phenyl-imidazol-2-yl)methoxy]-7,8-dihydro-6H-cyclopenta[1,2]imidazo[3,4-c]pyridazine]: the IC50 was 47 nM.
For the compound `Cc1nc2ccc(/C=C/c3nc(-c4ccccc4)nn3C)nn2c1C` [Example 11, (E)-2,3-Dimethyl-6-(2-(1-methyl-3-phenyl-1H-1,2,4-triazol-5-yl)vinyl)imidazo[1,2-b]pyridazine], the IC50 was 1.3 nM.
In the case of `Cc1nc2ccc(CCc3nc(-c4cccnc4)cn3C)nn2c1C` [Example 24, 2,3-Dimethyl-6-(2-(1-methyl-4-(pyridin-3-yl)-1H-imidazol-2-yl)ethyl)imidazo[1,2-b]pyridazine] it was 1690 nM.
